These compounds were tested against CD73 (Homo sapiens (Human), UniProt P21589) (assay: Biochemical CD73 Assay (Malachite Green free phosphate detection)). Conditions: recombinant human CD73 2 nM, AMP 40 μM, 45 min at 37° C.
Description: Activity of recombinant CD73 was measured by quantification of free phosphate using the Malachite Green detection system (R&D Systems #DY996). Test compounds were solubilized in DMSO and dispensed into 384-well polystyrene plates in a 8-point 3× titration in duplicates. Then, 10 μL of 4 nM human CD73 enzyme (Novoprotein #C446) in phosphate-free assay buffer (10 mM HEPES, pH 7.4, 125 mM NaCl, 1 mM KCl, 10 mM glucose, 2 mM MgCl2) was added to the plates. The compound and enzyme were incubated for 15 min at RT. Then, 10 μL of 80 μM AMP (Sigma Aldrich #A1752) in the assay buffer was added and the reaction mixture was incubated for 45 min at 37° C. The final concentrations of CD73 and AMP in the reaction were 2 nM and 40 μM, respectively. The reaction was stopped by adding 5 μL of Malachite Green reagent A and incubating for 10 min at RT, followed by addition of 5 μL of Malachite Green reagent B and incubation for 20 min at RT. Absorbance was then read at 620 nm with the Flexstation spectrophotometer (Molecular Devices). The IC50 values were determined using a four-parameter nonlinear regression curve fit.

CD73, sequence (P21589 27-574): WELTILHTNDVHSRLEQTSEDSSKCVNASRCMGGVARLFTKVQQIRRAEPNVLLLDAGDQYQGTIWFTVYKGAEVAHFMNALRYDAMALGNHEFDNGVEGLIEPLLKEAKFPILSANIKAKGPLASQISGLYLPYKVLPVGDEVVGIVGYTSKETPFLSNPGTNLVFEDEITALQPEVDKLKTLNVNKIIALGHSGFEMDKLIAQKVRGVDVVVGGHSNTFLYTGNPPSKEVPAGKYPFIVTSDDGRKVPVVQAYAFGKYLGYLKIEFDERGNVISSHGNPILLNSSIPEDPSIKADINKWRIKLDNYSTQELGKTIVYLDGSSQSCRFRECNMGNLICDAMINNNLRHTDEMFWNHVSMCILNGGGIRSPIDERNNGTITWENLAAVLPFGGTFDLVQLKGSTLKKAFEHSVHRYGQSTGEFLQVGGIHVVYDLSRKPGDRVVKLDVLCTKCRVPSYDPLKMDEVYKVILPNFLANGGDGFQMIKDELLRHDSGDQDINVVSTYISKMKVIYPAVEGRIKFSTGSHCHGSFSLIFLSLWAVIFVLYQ

| IC50 [nM] | SMILES |
| --- | --- |
| 879 | COC[C@](OC[C@H]1O[C@@H](n2ncc3c(NC4CCCC4)nc(Cl)nc32)[C@H](O)[C@@H]1O)(C(=O)N=[S@@](C)(=O)NC(=O)OC)P(=O)(O)O [Example 8, ((R)-2-(((2R,3S,4R,5R)-5-(6-Chloro-4-(cyclopentylamino)-1H-pyrazolo[3,4-d]pyrimidin-1-yl)-3,4-dihydroxytetrahydrofuran-2-yl)methoxy)-3-methoxy-1-(((R)-((methoxycarbonyl)amino)(methyl)(oxo)-λ^6-sulfaneylidene)amino)-1-oxopropan-2-yl)phosphonic Acid] |
| 1.7 | COC[C@@](OC[C@H]1O[C@@H](n2ncc3c(NC4CCCC4)nc(Cl)nc32)[C@H](O)[C@@H]1O)(C(=O)N=[S@@](C)(=O)NC(=O)OC)P(=O)(O)O [Example 7, ((S)-2-(((2R,3S,4R,5R)-5-(6-Chloro-4-(cyclopentylamino)-1H-pyrazolo[3,4-d]pyrimidin-1-yl)-3,4-dihydroxytetrahydrofuran-2-yl)methoxy)-3-methoxy-1-(((R)-((methoxycarbonyl)amino)(methyl)(oxo)-λ^6-sulfaneylidene)amino)-1-oxopropan-2-yl)phosphonic Acid] |
| 1 | COC[C@@](OC[C@H]1O[C@@H](n2ncc3c(NC4CCCC4)cc(Cl)nc32)[C@H](O)[C@@H]1O)(C(=O)N=[S@](C)(=O)NC(C)=O)P(=O)(O)O [Example 32, ((S)-1-(((S)-acetamido(methyl)(oxo)-λ^6-sulfaneylidene)amino)-2-(((2R,3S,4R,5R)-5-(6-chloro-4-(cyclopentylamino)-1H-pyrazolo[3,4-b]pyridin-1-yl)-3,4-dihydroxytetrahydrofuran-2-yl)methoxy)-3-methoxy-1-oxopropan-2-yl)phosphonic Acid] |
| 10 | CNC(=O)N[S@](C)(=O)=NC(=O)[C@@](COC)(OC[C@H]1O[C@@H](n2ncc3c(NC4CCCC4)cc(Cl)nc32)[C@H](O)[C@@H]1O)P(=O)(O)O [Example 29, ((S)-2-(((2R,3S,4R,5R)-5-(6-chloro-4-(cyclopentylamino)-1H-pyrazolo[3,4-b]pyridin-1-yl)-3,4-dihydroxytetrahydrofuran-2-yl)methoxy)-3-methoxy-1-(((R)-methyl(3-methylureido)(oxo)-λ^6-sulfaneylidene)amino)-1-oxopropan-2-yl)phosphonic Acid] |
| 11 | COC[C@@](OC[C@H]1O[C@@H](n2ncc3c(NC4CCCC4)cc(Cl)nc32)[C@H](O)[C@@H]1O)(C(=O)N=[S@@](C)(=O)NC(=O)C(C)C)P(=O)(O)O [Example 33, ((2S)-2-(((2R,3S,4R,5R)-5-(6-chloro-4-(cyclopentylamino)-1H-pyrazolo[3,4-b]pyridin-1-yl)-3,4-dihydroxytetrahydrofuran-2-yl)methoxy)-1-((isobutyramido(methyl)(oxo)-λ^6-sulfaneylidene)amino)-3-methoxy-1-oxopropan-2-yl)phosphonic Acid] |
| 7.8 | COC[C@@](OC[C@H]1O[C@@H](n2ncc3c(NC4CCCC4)nc(Cl)nc32)[C@H](O)[C@@H]1O)(C(=O)N=[S@@](C)(=O)NC(=O)c1cccnc1)P(=O)(O)O [Example 27, ((2S)-2-(((2R,3S,4R,5R)-5-(6-chloro-4-(cyclopentylamino)-1H-pyrazolo[3,4-d]pyrimidin-1-yl)-3,4-dihydroxytetrahydrofuran-2-yl)methoxy)-3-methoxy-1-((methyl(nicotinamido)(oxo)-λ^6-sulfaneylidene)amino)-1-oxopropan-2-yl)phosphonic Acid] |
| 220 | COC[C@](OC[C@H]1O[C@@H](n2ncc3c(NC4CCCC4)nc(Cl)nc32)[C@H](O)[C@@H]1O)(C(=O)N=[S@@](C)(=O)NC(C)=O)P(=O)(O)O [Example 6, ((R)-1-(((R)-Acetamido(methyl)(oxo)-λ^6-sulfaneylidene)amino)-2-(((2R,3S,4R,5R)-5-(6-chloro-4-(cyclopentylamino)-1H-pyrazolo[3,4-d]pyrimidin-1-yl)-3,4-dihydroxytetrahydrofuran-2-yl)methoxy)-3-methoxy-1-oxopropan-2-yl)phosphonic Acid] |
| 2.36 | COC[C@@](OC[C@H]1O[C@@H](n2ncc3c(NC4CCCC4)nc(Cl)nc32)[C@H](O)[C@@H]1O)(C(=O)N=[S@](C)(=O)NC(=O)c1ccc(F)cc1)P(=O)(O)O (single isomer, unassigned) [Example 26] |
| 2.3 | COC[C@@](OC[C@H]1O[C@@H](n2ncc3c(NC4CCCC4)nc(Cl)nc32)[C@H](O)[C@@H]1O)(C(=O)N=[S@](C)(=O)NC(=O)c1cnn(C)c1)P(=O)(O)O (single isomer, unassigned) [Example 24] |
| 275 | COC[C@](OC[C@H]1O[C@@H](n2ncc3c(NC4CCCC4)nc(Cl)nc32)[C@H](O)[C@@H]1O)(C(=O)N=[S@@](C)(N)=O)P(=O)(O)O [Example 4, ((2R)-1-((Amino(methyl)(oxo)-λ^6-sulfaneylidene)amino)-2-(((2R,3S,4R,5R)-5-(6-chloro-4-(cyclopentylamino)-1H-pyrazolo[3,4-d]pyrimidin-1-yl)-3,4-dihydroxytetrahydrofuran-2-yl)methoxy)-3-methoxy-1-oxopropan-2-yl)phosphonic Acid] |
| 19 | COC[C@](OC[C@H]1O[C@@H](n2ncc3c(NC4CCCC4)nc(Cl)nc32)[C@H](O)[C@@H]1O)(C(=O)N=[S@](C)(N)=O)P(=O)(O)O [Example 2, ((2R)-1-((Amino(methyl)(oxo)-λ^6-sulfaneylidene)amino)-2-(((2R,3S,4R,5R)-5-(6-chloro-4-(cyclopentylamino)-1H-pyrazolo[3,4-d]pyrimidin-1-yl)-3,4-dihydroxytetrahydrofuran-2-yl)methoxy)-3-methoxy-1-oxopropan-2-yl)phosphonic Acid] |
| 5.1 | COC[C@@](OC[C@H]1O[C@@H](n2ncc3c(NC4CCCC4)nc(Cl)nc32)[C@H](O)[C@@H]1O)(C(=O)N=S(C)(=O)NC(=O)C1COC1)P(=O)(O)O (single isomer, unassigned) [Example 21] |
| 1.13 | COC[C@@](OC[C@H]1O[C@@H](n2ncc3c(NC4CCCC4)nc(Cl)nc32)[C@H](O)[C@@H]1O)(C(=O)N=[S@@](C)(=O)NC(=O)c1ccc(F)cc1)P(=O)(O)O (single isomer, unassigned) [Example 25] |
| 0.47 | COC[C@@](OC[C@H]1O[C@@H](n2ncc3c(NC4CCCC4)nc(Cl)nc32)[C@H](O)[C@@H]1O)(C(=O)N=[S@@](C)(=O)NC(=O)c1cnn(C)c1)P(=O)(O)O (single isomer, unassigned) [Example 23] |
| 1.6 | COC[C@@](OC[C@H]1O[C@@H](n2ncc3c(NC4CCCC4)nc(Cl)nc32)[C@H](O)[C@@H]1O)(C(=O)N=[S@@](C)(=O)NC(C)=O)P(=O)(O)O [Example 5, ((S)-1-(((R)-Acetamido(methyl)(oxo)-λ^6-sulfaneylidene)amino)-2-(((2R,3S,4R,5R)-5-(6-chloro-4-(cyclopentylamino)-1H-pyrazolo[3,4-d]pyrimidin-1-yl)-3,4-dihydroxytetrahydrofuran-2-yl)methoxy)-3-methoxy-1-oxopropan-2-yl)phosphonic Acid] |
| 1 | COC[C@@](OC[C@H]1O[C@@H](n2ncc3c(NC4CCCC4)cc(Cl)nc32)[C@H](O)[C@@H]1O)(C(=O)N=[S@](C)(=O)NC(=O)C1CC1)P(=O)(O)O [Example 28, ((S)-2-(((2R,3S,4R,5R)-5-(6-chloro-4-(cyclopentylamino)-1H-pyrazolo[3,4-b]pyridin-1-yl)-3,4-dihydroxytetrahydrofuran-2-yl)methoxy)-1-(((S)-cyclopropanecarboxamido(methyl)(oxo)-λ^6-sulfaneylidene)amino)-3-methoxy-1-oxopropan-2-yl)phosphonic Acid] |
| 0.6 | CNC(=O)N[S@@](C)(=O)=NC(=O)[C@@](COC)(OC[C@H]1O[C@@H](n2ncc3c(NC4CCCC4)cc(Cl)nc32)[C@H](O)[C@@H]1O)P(=O)(O)O [Example 30, ((S)-2-(((2R,3S,4R,5R)-5-(6-chloro-4-(cyclopentylamino)-1H-pyrazolo[3,4-b]pyridin-1-yl)-3,4-dihydroxytetrahydrofuran-2-yl)methoxy)-3-methoxy-1-(((S)-methyl(3-methylureido)(oxo)-λ^6-sulfaneylidene)amino)-1-oxopropan-2-yl)phosphonic Acid] |
| 0.21 | COC[C@@](OC[C@H]1O[C@@H](n2ncc3c(NC4CCCC4)nc(Cl)nc32)[C@H](O)[C@@H]1O)(C(=O)N=[S@](C)(=O)NC(=O)C1COC1)P(=O)(O)O [Example 22, ((2S)-2-(((2R,3S,4R,5R)-5-(6-chloro-4-(cyclopentylamino)-1H-pyrazolo[3,4-d]pyrimidin-1-yl)-3,4-dihydroxytetrahydrofuran-2-yl)methoxy)-3-methoxy-1-((methyl(oxetane-3-carboxamido)(oxo)-λ^6-sulfaneylidene)amino)-1-oxopropan-2-yl)phosphonic Acid] |
| 0.5 | COC[C@@](OC[C@H]1O[C@@H](n2ncc3c(NC4CCCC4)cc(Cl)nc32)[C@H](O)[C@@H]1O)(C(=O)N=[S@@](C)(=O)NC(C)=O)P(=O)(O)O [Example 31, ((S)-1-(((R)-acetamido(methyl)(oxo)-λ^6-sulfaneylidene)amino)-2-(((2R,3S,4R,5R)-5-(6-chloro-4-(cyclopentylamino)-1H-pyrazolo[3,4-b]pyridin-1-yl)-3,4-dihydroxytetrahydrofuran-2-yl)methoxy)-3-methoxy-1-oxopropan-2-yl)phosphonic Acid] |

Source: patent US20240140980A1, “HETEROCYCLIC INHIBITORS OF CD73 FOR TREATMENT OF DISEASE” (Teon Therapeutics, Inc., priority 2022, published 2024)
